Experimental findings from PubChem BioAssay (NCI) are described below.

Common to all, as to assay: NCI anticancer screen, dose series, 48 h
The test system of experiment [1] is 786-0 renal.
Experiment [2] relates to HCT-116 colon.
Experiment [3] concerns HOP-62 NSCLC.
In experiment [4] the test system is HOP-92 NSCLC.
In experiment [5] the test system is KM12 colon.
The subject of experiment [6] is NCI/ADR-RES ovarian.
Experiment [7] deals with OVCAR-3 ovarian.
Experiment [8] concerns SK-MEL-2 melanoma.
Experiment [9] relates to SK-MEL-28 melanoma.
Experiment [10] deals with T-47D breast.

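In this assay, cells in 96-well plates receive the compound at five concentrations for 48 hours. Endpoints are linearly interpolated between the surrounding concentrations. The concentration for 50% growth inhibition is given as GI50. TGI: total growth inhibition.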

Take `Clc1ccccc1[C@@H]1C[C@@H]2Cc3cc(Br)c4ccccc4c3N1O2`: the GI50 is 5.2 µM in [1]; 4.1 µM in experiment [2]; 5.7 µM in experiment [3]; 3.07 µM in experiment [4]; 4.23 µM in experiment [5]; 2.75 µM in [6]. Also, the GI50 in experiment [7] was 3.29 µM; in experiment [8] it was 2.54 µM; in experiment [9], 6.92 µM; in experiment [10], 4.26 µM. The TGI in [1] is > 100 µM; in [2], > 100 µM; in [3], > 100 µM; in experiment [4], 35.6 µM; in experiment [5], > 100 µM; in [6] it was > 100 µM. In addition, the TGI in experiment [7] was 11.1 µM; in [8], 6.61 µM; in [9] it was > 100 µM; in experiment [10], > 100 µM.
Regarding `CCNc1cc2oc(=O)cc(C(F)(F)F)c2cc1C`, the TGI in experiment [1], in experiment [2], in [3], in [4], in experiment [5] and in experiment [6] was > 100 µM each time. The TGI in experiment [7], in [8], in experiment [9] and in experiment [10] was > 100 µM each time.
Consider `COc1cccc(Sc2ccc([N+](=O)[O-])c3no[n+]([O-])c23)c1`, for which the GI50 is 19.5 µM in experiment [1]; 3.7 µM in [2]; 25.2 µM in experiment [3]; 15.5 µM in experiment [4]; 17.2 µM in experiment [5]; 5.97 µM in [6]. Moreover, the GI50 in experiment [7] is 2.83 µM; in experiment [8] it was 20.9 µM; in experiment [9], 6.52 µM; in experiment [10] it was 3.36 µM. For the same compound, the TGI in experiment [1] amounted to 34.8 µM; in experiment [2], 14.4 µM; in [3], 50 µM; in [4] it was 32.7 µM; in experiment [5], 33.5 µM; in experiment [6], 19.1 µM. Besides, the TGI is 7.48 µM in experiment [7], 45.2 µM in [8], 14 µM in experiment [9] and 14.4 µM in [10].
With `COc1cc(-c2nn(-c3cccc(NC(=O)NCCNS(=O)(=O)c4ccc(Cl)cc4)c3)cc2-c2ccncc2)ccc1Cl`, the GI50 in experiment [1] is 1.5 µM; in [2], 0.381 µM; in [3] it was 1.08 µM; in [4], 0.886 µM; in experiment [5], 0.456 µM; in experiment [6] it was 22.7 µM. For the same compound, the GI50 in experiment [7] was 0.371 µM; in experiment [8], 0.629 µM; in [9], 1.48 µM; in experiment [10], 0.646 µM. The TGI in experiment [1] is 5.78 µM; in experiment [2] it was 2.47 µM; in experiment [3], 33 µM; in experiment [4], 5.45 µM; in experiment [5] it was 2.41 µM; in experiment [6], > 100 µM. In addition, the TGI in experiment [7] was determined as 1.55 µM; in experiment [8], 2.81 µM; in [9], 13.2 µM; in [10], 18.1 µM.
With `O=C(O)C1CCN(Cc2oc(CO)cc(=O)c2O)C1` (stereo not given), the TGI in [1], in [2], in experiment [3], in experiment [4], in experiment [5] and in experiment [6] was > 100 µM each time. The TGI in experiment [7], in experiment [8], in [9] and in [10] was > 100 µM in each case.
As to `O=C(O)/C=C/c1ccc[c]([Sb](=[O])([OH])[OH])c1`, the GI50 in experiment [1], in [2], in experiment [3], in experiment [4], in [5] and in [6] was > 100 µM throughout. The GI50 in [7], in [8], in [9] and in [10] was > 100 µM throughout. Also, the TGI in experiment [1], in experiment [2], in [3], in experiment [4], in experiment [5] and in [6] was > 100 µM in each case. The TGI in [7], in [8], in experiment [9] and in experiment [10] was > 100 µM each time.
For the compound `COC1(OC)C2(Cl)C(Cl)=C(Cl)C1(Cl)C1c3ccc(C(C)=O)c4cccc(c34)C12` (stereo not given), the TGI was > 100 µM in experiment [1]; > 100 µM in experiment [2]; > 100 µM in [3]; 22.1 µM in experiment [4]; > 100 µM in experiment [5]; > 100 µM in experiment [6]. Also, the TGI in experiment [7] was > 100 µM; in experiment [8] it was 50.1 µM; in experiment [9] it was > 100 µM; in experiment [10] it was 99.3 µM.
Consider `CN(C)C[C@H]1CCn2c(c(C3=C(c4cn(C)c5ccccc45)C(=O)NC3=O)c3ccccc32)C1`, for which the GI50 is 4.78 µM in [1]; 3.47 µM in experiment [2]; 4.57 µM in experiment [3]; 4.19 µM in [4]; 4.57 µM in experiment [5]; 5.67 µM in experiment [6]. Further, the GI50 is 4.54 µM in experiment [7], 4.97 µM in experiment [8], 4.25 µM in experiment [9] and 5.43 µM in experiment [10]. In addition, the TGI in experiment [1] is 9.29 µM; in experiment [2] it was 7.27 µM; in [3] it was 8.58 µM; in [4] it was 10.9 µM; in experiment [5] it was 8.66 µM; in [6], 14.2 µM. The TGI in experiment [7] stood at 8.97 µM; in experiment [8], 9.23 µM; in [9], 8.02 µM; in experiment [10], 11.2 µM.
